Our source for the EC50 values is ChEMBL document CHEMBL1150090, “Agastaquinone, a new cytotoxic diterpenoid quinone from Agastache rugosa” (1995).

Converted amounts (≈) assume the structure as drawn.

Common to all, as to assay type: functional
Settings in all cases: read-out: ED50 (the source's name)

For experiment [1], the system named is A549. As to the kind of experiment: Cytotoxicity against human A549 cells.
Experiment [2] deals with SK-OV-3. In words: Cytotoxicity against human SKOV3 cells.
In experiment [3] the test system is SK-MEL-2. In words: Cytotoxicity against human SK-MEL-2 cells.
The subject of experiment [4] is XF498. In words: Cytotoxicity against human XF498 cells.
Experiment [5] has as its system HCT-15. As to the kind of experiment: Cytotoxicity against human HCT15 cells.

Take `COC1=C(C(C)C)C(=O)c2c(O)cc3c(c2C1=O)C=C/C(=N\O)C3(C)C`: the EC50 came out at 9.1 µg/mL (≈ 25.6 µM) in experiment [1]; 18.7 µg/mL (≈ 52.6 µM) in experiment [2]; 11.8 µg/mL (≈ 33.2 µM) in experiment [3]; 8.5 µg/mL (≈ 23.9 µM) in experiment [4]; 7 µg/mL (≈ 19.7 µM) in experiment [5].

As to `COC1=C(C(C)C)C(=O)c2c(O)cc3c(c2C1=O)C=CC(=O)C3(C)C` [AGASTAQUINONE], the EC50 in experiment [1] was 6.8 µg/mL (≈ 20 µM); in experiment [2] it was 12.8 µg/mL (≈ 37.6 µM); in experiment [3] it was 4.1 µg/mL (≈ 12 µM); in experiment [4], 1.8 µg/mL (≈ 5.29 µM); in experiment [5], 5.2 µg/mL (≈ 15.3 µM).
